Measured values: US5356886A, “Antiviral phosphono-alken derivatives of purines” (Beecham Group p.l.c., priority 1990, dated 1994)
≈ marks a conversion by molar mass, not a printed value. Like-named read-outs stand apart in the source and are kept apart here.

Assays:
Format in all cases: cell-based
Visna Virus = test: CPE Inhibition Test (Established Monolayer) for Lentiviruses, visna virus (strain K184) in sheep choroid plexus cells; details: Visna-maedi virus; visna virus strain K184, SCP cells; read-out: MIC (minimum concentration giving complete protection of the cell monolayers)
Description: 3×10^4 sheep choroid plexus (SCP) cells were plated into individual wells of a 96 well microtitre plate in 100 μl of Eagle's MEM with Hanks' salts containing 10% heat inactivated foetal calf serum (FCS). When monolayers had become established (after 1 or 2 days growth) they were washed with 200 μl of maintenance medium (Eagle's MEM with Hanks' salts containing 0.5% FCS) and infected with 100 μl of visna virus (strain K184) in maintenance medium (30 TCID50/ml). Test samples were diluted with maintenance medium in further 96 well microtitre plates over the range 200-0.06 μg/ml by 3-fold dilution steps. 100 μl of the diluted samples was then transferred directly onto virus-infected monolayers (final concentration range therefore 100-0.03 μg/ml) and […] containing 5% CO2 until virus-induced CPE was maximal in the untreated virus-infected controls (usually 12-14 days). The plates were fixed with formal saline and stained with crystal violet. Virus-induced CPE was then scored microscopically and the minimum concentration of sample giving complete protection of the cell monolayers (MIC) determined.

HIV [1] = test: HIV Suppression test, viral antigen (core protein p24, sandwich ELISA) in peripheral human lymphocytes; details: Human immunodeficiency virus 1, Lymphocyte, 96 h; Concn. 10 μM; read-out: % Inhibition on Day 4 after infection, Viral Antigen
Description: (§1) Peripheral human lymphocytes were prepared, cultivated, and harvested as above. Following the determination of the lymphocyte surface markers, unstimulated and mitogen stimulated cells were combined in a ratio of 1:2.
(§2) Under safety conditions these cells are infected with a standard preparation of HIV. The cells are sedimented by centrifugation. The supernatant was discarded and cells were resuspended in the HIV inoculum.
(§3) This inoculum is a liquid suspension of HIV-1 strain virus, pretested and adjusted to a titer that results in a synthesis of viral core protein p24 of >100 ng/ml at day four following infection of human lymphocytes according to the protocol.
(§4) 3×10^8 lymphocytes were resuspended in 1 ml HIV inoculum and incubated at 37° C. for 60 minutes. Subsequently, the cells were washed two times with 50 ml of culture medium and resuspended in culture medium containing 10 units/ml of human recombinant interleukin-2 to yield a cell concentration of 2×10^6 cells/ml. 100 μof this cell suspension was added to each well of the microtiter plates containing the diluted solutions of the compounds. The microtiter plates were cultivated in an incubator with a humidified atmosphere and 5% CO2 at 37° C.
(§5) Accordingly, a fraction of lymphocytes was mock-infected with the same virus preparation that was heat inactivated (30 minutes at 56° C.) prior to infection.
(§6) On each of the days 2,3 and 4 post infection one of the microtiter plates which had been established in triplicate was prepared for determination of viral replication. Viral RNA is determined within the cells whereas the viral core protein p24 was detected in the supernatant of the lymphocyte culture.
(§7) Accordingly, 150 μl of supernatant were removed from each well and transferred to the well of a microtiter plate containing 50 μl/well of SDS (sodium dodecylsulfate, 0.08%). These plates were stored frozen. 50 μl of stop solution (1% SDS, 20 mM sodium acetate, pH 5.0, and 200 μg/ml heparin) were added to the cells remaining in each well. The plates were stored frozen.
(§8) The concentration of p24 synthesized by the HIV infected cells was determined by means of a sandwich ELISA, while the concentration of viral RNA was quantitated by nucleic acid hybridisation, using a ^32 P-labelled DNA probe for the gag/pol region of the viral genome. Absolute levels of viral antigen and RNA in drug treated samples were compared with untreated, virus-infected controls and the percentage inhibition calculated.

HIV [2] = test: HIV Suppression test, viral RNA (nucleic acid hybridisation) in peripheral human lymphocytes; details: Human immunodeficiency virus 1, Lymphocyte, 96 h; Concn. 10 μM; read-out: % Inhibition on Day 4 after infection, Viral RNA
Description: as §1, §2, §3, §4, §5, §6, §7, §8

FIV = test: Test for Feline Immunodeficiency Virus (FIV Glasgow 8) in Crandell Feline Kidney cells; details: FIV Glasgow 8, Crandell Feline Kidney cells, 11-14 days, read-out: MIC (minimum concentration of drug inhibiting syncitial production)
Description: (§9) Drug stocks were diluted to the appropriate concentration, in medium (e.g. 10 mg/ml to 200 μg/ml). 150 μl of each drug was dispersed in triplicate, across the top row of a microtitre plate (150 μl of media for virus and cell control, vc and cc). 100 μl of medium was dispersed into all other wells. The wells were serially diluted moving down the plate, removing 50 μl from each well and transferring to the next row. 50 μl was discarded from the bottom wells.
(§10) Trypsinisation was carried out from a confluent cell monolayer of Crandell Feline Kidney cells, in 10% trypsin, followed by resuspension in media at 1×10^6 per ml, ensuring that a single cell suspension is achieved. (Media: 90% 1×RPMI, 25 mM hepes buffer; 10% Foetal calf serum; 2% Glutamine; 2% penecillin/streptomycin.)
(§11) FIV Glasgow 8 virus was diluted to 4× the required virus challenge in medium (40 TCID50 /ml). The virus infected medium was mixed with an equal volume of cell suspension, 100 μl of which was aliquoted into each well of the drug plate, except cell control. 100 μl of cell suspension at 5×10^4 per ml was added to the latter. This gives a final cell concentration of 2.5×10^4 per ml, and drug range 100-0.03 μg/ml. The plates were incubated at 37° C., 5% CO2 in an air humidified incabator for 11-14 days. The cells were fixed by immersing the plates in formoli saline (10% formaldehyde; 10% 1.5M NaCl; 80% water) for 1 hour minimum. The cells were stained with 10% crystal violet for 15 minutes.
(§12) The assay was scored by looking for presence of syncitia and, virus induced cytopathic effect in the cell monolayers, under a microscope. Results are given as the minimum concentration of drug inhibiting syncitial production, minimum inhibitory concentration, MIC.

[3] = Cytotoxicity for the cell monolayers in the FIV test; details: cat, crandell feline kidney cells
Description: as §9, §10, §11, §12

HSV-1 = test: Plaque Reduction Test for Herpes Simplex Virus 1 (strain SC16) in MRC-5 cells; details: Human alphaherpesvirus 1, MRC5
Description: (§13) MRC-5 cells were grown to confluence in 24 well multi-dishes (well diameter=1.5 cm). The drained cell monolayers were each infected with approximately 50 infectious particles of herpes simplex virus 1 (HSV-1; strain SC16) or herpes simplex virus 2 (HSV-2; strain MS) in 100 μl of phosphate-buffered saline. The virus was adsorbed for 1 hour at room temperature. After adsorption, residual inoculum was removed from each well and replaced with 0.5 ml of Eagle's MEM containing 5% newborn calf serum and 0.9% agarose (A37). Once the agarose had set, dilutions of the test compound, which had been prepared in Eagle's MEM (containing 5% newborn calf serum), were added, each well receiving 0.5 ml of liquid overlay. The test compound was diluted to give the following series of concentrations: 200, 60, 20, 6 . . . 0.06 μg/ml; final concentrations in the assay ranged, therefore, between 100 μg/ml and 0.03 μg/ml. The infected cultures were incubated at 37° C. in a humidified atmosphere of 5% CO2 until plaques were clearly visible (usually 1 day).
(§14) Cultures from 1 and 2 were fixed in formal saline, the agarose overlays were carefully washed off, and then the cell monolayers were stained with carbol fuchsin. A stereo microscope was used to count plaques. The IC50 (concentration of drug which inhibits the number of plaques formed by 50% relative to the number of plaques observed in virus control monolayers) of the test compound was calculated. In addition, the monolayers were examined for evidence of drug-induced cytotoxicity; the minimum concentration at which cytotoxicity occurs was recorded.

HSV-2 = test: Plaque Reduction Test for Herpes Simplex Virus 2 (strain MS) in MRC-5 cells; details: Human alphaherpesvirus 2, MRC5
Description: as §13, §14

VZV = test: Plaque Reduction Test for Varicella-Zoster Virus (Ellen strain) in MRC-5 cells; details: Human alphaherpesvirus 3, MRC5
Description: as §13, with “varicella zoster” for “herpes simplex”, “(VZV; Ellen strain)” for “1 (HSV-1; strain SC16) or herpes simplex virus 2 (HSV-2; strain MS)”, “heat-inactivated foetal” for “newborn”, “(5 or 6 days).” for “(usually 1 day).”
as §14

CMV = test: Plaque Reduction Test for Cytomegalovirus (AD-169 strain) in MRC-5 cells; details: Human betaherpesvirus 5, AD169, MRC5
Description: MRC-5 cells were grown to confluence in 24 well multi-dishes (well diameter=1.5 cm). The drained cell monolayers were each infected with approximately 50 infectious particles of cytomegalovirus (CMV; AD-169 strain) in 100 μl of phosphate-buffered saline. The virus was adsorbed for 1 hour at room temperature. After adsorption, residual inoculum was removed from each well and replaced with 1 ml of Eagle's MEM containing 10% heat inactivated foetal calf serum and 0.9% agarose (A37). Once the agarose had set, dilutions of the test compound, which had been prepared in Eagle's MEM (containing 10% heat-inactivated calf serum), were added, each well receiving 1 ml of liquid overlay. The test compound was diluted to give the following series of concentrations: 200, 60, 20, 6 . . . 0.06 μg/ml; final concentrations in the assay range, therefore, between 100 μg/ml and 0.03 μg/ml. The infected cultures were incubated at 37° C. in a humidified atmosphere containing 5% CO2 until plaques were clearly visible (about 12 days). The cultures are fixed in formol saline, the agarose overlays were carefully washed off, and then the cell monolayers were stained with carbol fuchsin. A stereo microscope was used to count plaques. The IC50 (concentration of drug which inhibits the number of plaques formed by 50% relative to the number of plaques observed in virus control monolayers) of the test compound was calculated. In addition, the monolayers were examined for evidence of drug-induced cytotoxicity; the minimum concentration at which cytotoxicity occurs was recorded.

[4] = no cytotoxicity noted with concentrations up to this value, read-out: cytotoxicity for the cell monolayers
[5] = read-out: concentration at which cytotoxicity was noted

With Nc1ncnc2c1ncn2OCC/C=C/P(=O)(O)O [Example 3, (E)-9-(4-phosphonobut-3-enyloxy)adenine] the MIC (Visna Virus) was 10 µg/mL (≈ 35.1 µM), the inhibition at 10 µM (HIV [1]) was 47% and the inhibition at 10 µM (HIV [2]) was 44%. It also gave an MIC (FIV) of 10 µg/mL (≈ 35.1 µM) and an MCC [3, 4] of over 100 µg/mL.
Nc1ncnc2c1ncn2CC/C=C/P(=O)(O)O [Example 5, (E)-9-[4-Phosphonobut-3-enyl]adenine] showed an MIC (Visna Virus) of 1 µg/mL (≈ 3.71 µM).
Work on Nc1nc2c(ncn2CC/C=C/P(=O)(O)O)c(=O)[nH]1 [Example 6, (E)-9-[4-phosphonobut-3-enyl]guanine] yielded an IC50 (HSV-1) of 100 µg/mL (≈ 351 µM), an IC50 (HSV-2) of 26 µg/mL (≈ 91.2 µM) and an IC50 (VZV) of 55 µg/mL (≈ 193 µM). For the same compound, the IC50 (CMV) was 15 µg/mL (≈ 52.6 µM) and the MIC (Visna Virus) was 0.1 µg/mL (≈ 0.351 µM).
Nc1nc(N)c2ncn(CC/C=C/P(=O)(O)O)c2n1 [Example 8, (E)-2,6-Diamino-9-(4-phosphonobut-3-enyl)purine] showed an MIC (Visna Virus) of 0.3 µg/mL (≈ 1.06 µM), an inhibition at 10 µM (HIV [1]) of 37% and an inhibition at 10 µM (HIV [2]) of 62%.
Nc1ncnc2c1ncn2OCC/C=C\P(=O)(O)O [Example 10, (Z)-9-(4-Phosphonobut-3-enyloxy) adenine] gave an MIC (Visna Virus) of 100 µg/mL (≈ 351 µM).
Compound Nc1nc2c(ncn2OCC/C=C\P(=O)(O)O)c(=O)[nH]1 [Example 11, (Z)-9-(4-phosphonobut-3-enyloxy)guanine] has an IC50 (HSV-1) of 100 µg/mL (≈ 332 µM), an IC50 (HSV-2) of over 100 µg/mL and an IC50 (VZV) of over 100 µg/mL. For the same compound, the IC50 (CMV) was 55 µg/mL (≈ 183 µM), the MIC (Visna Virus) was under 0.03 µg/mL and the inhibition at 10 µM (HIV [1]) was 3%. The inhibition at 10 µM (HIV [2]) was 33%.
Compound Nc1nc2c(ncn2OCC(/C=C/P(=O)(O)O)CO)c(=O)[nH]1 (stereo not drawn) [Example 13, (E)-9-(2-hydroxymethyl-4-phosphonobut-3-enyloxy)guanine] has an IC50 (HSV-1) of 100 µg/mL (≈ 302 µM), an IC50 (HSV-2) of 60 µg/mL (≈ 181 µM) and an IC50 (VZV) of 5 µg/mL (≈ 15.1 µM). It also gave an IC50 (CMV) of 15 µg/mL (≈ 45.3 µM), an MIC (FIV) of 0.1 µg/mL (≈ 0.302 µM) and an MCC [3, 5] of 1 µg/mL.
With Nc1ncnc2c1ncn2OCC(/C=C/P(=O)(O)O)CO (stereo not drawn) [Example 15, (E)-9-(2-hydroxymethyl-4-phosphonobut-3-enyloxy) adenine] the MIC (FIV) was 30 µg/mL (≈ 95.2 µM) and the MCC [3, 4] was over 100 µg/mL.
Work on Nc1ncnc2c1ncn2CC(/C=C/P(=O)(O)O)CO (stereo not drawn) [Example 17, (E)-9-(2-Hydroxymethyl-4-phosphonobut-3-enyl)adenine] yielded an IC50 (HSV-1) of 20 µg/mL (≈ 66.8 µM), an IC50 (HSV-2) of 29 µg/mL (≈ 96.9 µM) and an IC50 (VZV) of under 3 µg/mL. It also gave an IC50 (CMV) of 11 µg/mL (≈ 36.8 µM), an MIC (FIV) of 0.03 µg/mL (≈ 0.1 µM) and an MCC [3, 5] of 10 µg/mL.
